In patent US20100311718A1, “Treatment of Psychoses with Dibenzothiazepine Antipsychotic” (AstraZeneca AB, priority 2004, published 2010):
Counter-ions that a name gives are not always drawn. Like-named read-outs stand apart in the source and are kept apart here. Marks after values point to notes of the source that are not given here. Values belong to the compound of their own block, whether it stands above or below them.

Experiments:
[1] = test system: patients with bipolar depression; conditions: monotherapeutic agent; cited from earlier work
[2] = test system: patients with bipolar depression; conditions: 8 week trial; difference not statistically significant; cited from earlier work
[3] = test system: patients with bipolar depression; conditions: 7-week trial, patients who completed the study; cited from earlier work
[4] = test system: patients with bipolar depression
Source text: Criteria for Emergent Mania (any one of the following): AE (Adverse Event) or SAE
(Serious Adverse Event) of Mania. Withdrawal for AE of mania. YMRS (Young Mania Rating Scale) ≧16 on 2 consecutive or final assessment.

[5] = test system: patients with bipolar depression; conditions: for Change in MADRS, Mean (SD): Bipolar I
Source text: (§1) The treatment was with quetiapine or placebo. There were 43% male and 57% female patients. The demographics also included 67% bipolar I and 33% bipolar II.

[6] = test system: patients with bipolar depression; remark: listed apart in the source
Source text: as §1

[7] = test system: patients with bipolar depression; remark: listed apart in the source
Source text: as §1

[8] = test system: patients with bipolar depression; remark: listed apart in the source
Source text: as §1

[9] = test system: patients with bipolar depression; conditions: for Improvement in mean HAM-A score: endpoint (Week 8), P<0.05 vs placebo
Source text: as §1

[10] = test system: patients with bipolar depression; conditions: both doses, p<0.001
[11] = test system: patients with bipolar depression; remark: listed apart in the source
Source text: as §1

[12] = treatment of bipolar depression
[13] = OC (completer) population, 300 mg/day
[14] = OC (completer) population, 600 mg/day

Structure (SMILES): O=C([O-])[O-].[Li+].[Li+] [Lithium carbonate]
Patients with bipolar depression in whom monotherapy is effective [1]: approximately 50%

Structure (SMILES): CCCC(CCC)C(=O)O [divalproex]
Percentage of patients with a 50% reduction in HAM-D scores without mania [2]: numerical improvement over placebo

Structure (SMILES): Nc1nnc(-c2cccc(Cl)c2Cl)c(N)n1 [lamotrigine]
HAM-D and MADRS scores [3]: produced improvement in HAM-D and MADRS scores

Treatment-emergent mania, number of patients ([4]; 300 mg): 6 | Treatment-emergent mania, percent of patients ([4]; 300 mg): 3.5% | Treatment-emergent mania, number of patients ([4]; 600 mg): 4 | Treatment-emergent mania, percent of patients ([4]; 600 mg): 2.4% | Changes in weight ([11]; in vivo): Small dose related changes in weight
Structure (SMILES): OCCOCCN1CCN(C2=Nc3ccccc3Sc3ccccc32)CC1 [quetiapine, 2-[2-(4-dibenzo [b,f] 1,4]thiazepin-11-yl-1-piperazinyl)ethoxy]-ethanol fumarate]
Association with treatment-emergent mania (switching) [4, 12]: not associated with treatment-emergent mania | MADRS effect size ([5]; Bipolar I & II): 0.6 | Change in MADRS, Mean (SD) ([5]; ITT population, 300 mg/day): −17.1 (9.7) | Change in MADRS, Mean (SD) ([5]; ITT population, 600 mg/day): −18.2 (11.0) | MADRS Change ([5]; ITT population, 300 mg/day): −16.5 | MADRS Change ([5]; ITT population, 600 mg/day): −16.8 | MADRS Change [5, 13]: −18.6 | MADRS Change [5, 14]: −20.3 | Efficacy against depressive symptoms (MADRS and HAM-D) ([5]; both doses, p<0.001): Efficacy against depressive symptoms in both doses from Day 8 on | Advantage over placebo, MADRS Responder analysis ([5]; in vivo): 20% | Advantage over placebo, remission analysis ([5]; in vivo): 20% | HAM-D Change ([6]; ITT population, 300 mg/day): −13.4 | HAM-D Change ([6]; ITT population, 600 mg/day): −13.9 | HAM-D Change [6, 13]: −15.0 | HAM-D Change [6, 14]: −17.0 | Q-LES-Q change (Δ), Mean (SD) ([7]; Week 4, 300 mg): 8.6 (9.6)^a | Q-LES-Q change (Δ), Mean (SD) ([7]; Week 4, 600 mg): 11.0 (10.7)* | Q-LES-Q change (Δ), Mean (SD) ([7]; Week 8, 300 mg): 11.7 (10.4)^a | Q-LES-Q change (Δ), Mean (SD) ([7]; Week 8, 600 mg): 16.3 (10.3)* | Q-LES-Q change (Δ), Mean (SD) ([7]; Week 8 LOCF, 600 mg): 12.2 (11.6)* | PSQI change (Δ), Mean (SD) ([8]; Week 4, 300 mg): −4.7 (4.2)* | PSQI change (Δ), Mean (SD) ([8]; Week 4, 600 mg): −5.3 (4.9)* | PSQI change (Δ), Mean (SD) ([8]; Week 8, 300 mg): −5.3 (4.3)* | PSQI change (Δ), Mean (SD) ([8]; Week 8, 600 mg): −6.4 (4.3)* | PSQI change (Δ), Mean (SD) ([8]; Week 8 LOCF, 300 mg): −5.1 (4.3)* | Sleep component: Sleep disturbance, Mean (SD) ([8]; Week 8 LOCF, 300 mg): 1.1 (0.6) | Sleep component: Sleep duration, Mean (SD) ([8]; Week 8 LOCF, 300 mg): 0.7 (0.8) | Sleep component: Sleep dysfunction, Mean (SD) ([8]; Week 8 LOCF, 300 mg): 1.3 (0.9) | Sleep component: Sleep latency, Mean (SD) ([8]; Week 8 LOCF, 300 mg): 1.3 (1.0) | Sleep component: Sleep medication, Mean (SD) ([8]; Week 8 LOCF, 300 mg): 0.4 (0.9) | Sleep component: Sleep quality, Mean (SD) ([8]; Week 8 LOCF, 300 mg): 1.0 (0.8) | PSQI change (Δ), Mean (SD) ([8]; Week 8 LOCF, 600 mg): −5.5 (4.8)* | Sleep component: Sleep disturbance, Mean (SD) ([8]; Week 8 LOCF, 600 mg): 1.2 (0.7) | Sleep component: Sleep duration, Mean (SD) ([8]; Week 8 LOCF, 600 mg): 0.5 (0.8) | Sleep component: Sleep dysfunction, Mean (SD) ([8]; Week 8 LOCF, 600 mg): 1.4 (0.9) | Sleep component: Sleep latency, Mean (SD) ([8]; Week 8 LOCF, 600 mg): 1.3 (1.1) | Sleep component: Sleep medication, Mean (SD) ([8]; Week 8 LOCF, 600 mg): 0.4 (0.9) | Sleep component: Sleep quality, Mean (SD) ([8]; Week 8 LOCF, 600 mg): 0.8 (0.8) | Improvement in mean HAM-A score ([9]; about 300 mg/day): −8.6 | Improvement in mean HAM-A score ([9]; about 600 mg/day): −8.7 | Efficacy in anxiety symptoms (HAM-A) ([9]; both doses, p<0.01): Efficacy in anxiety symptoms (HAM-A) in both doses from Day 8 on | Clinical Improvement (CGI) [10]: Clinical Improvement (CGI) in both doses from Day 8 on | Adverse event trends ([11]; in vivo): No unexpected AE trends | Tolerability [11, 12]: well-tolerated in the treatment of bipolar depression with a low incidence of EPS (extrapyramidal symptoms), prolactin, sexual dysfunction and weight gain
